Data: patent US20060264460A1 (Wyeth, priority 2005, published 2006)

target: T1, human Cot/Tpl2 kinase (Homo sapiens, UniProt P41279); experiment: Tpl2/Cot kinase assay: GST-MEK1 phosphorylation detected by ELISA (DELFIA Eu); assay type: biochemical; details: 0.4 nM Tpl2, 35 nM GST-MEK1, 50 uM ATP, 1 h at 30° C.
T1 construct: human Cot/Tpl2 kinase construct encoding residues 30-398; 6His (N); made in house; host or cells: Sf9 insect cells, baculovirus system (BD Biosciences)
Procedure, shortened: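 His-tagged human Tpl2 from Sf9 cells, Ni-affinity and size-exclusion purified (monomer). 0.4 nM Tpl2 with 35 nM GST-MEK1, 50 uM ATP, MOPS pH 7.2, 1% DMSO, 1 h at 30° C; EDTA stop. MEK1 Ser217/221 phosphorylation detected by anti-phospho-MEK1 and Eu-labelled secondary ELISA; IC50 fitted.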

T1 sequence (P41279 30-398): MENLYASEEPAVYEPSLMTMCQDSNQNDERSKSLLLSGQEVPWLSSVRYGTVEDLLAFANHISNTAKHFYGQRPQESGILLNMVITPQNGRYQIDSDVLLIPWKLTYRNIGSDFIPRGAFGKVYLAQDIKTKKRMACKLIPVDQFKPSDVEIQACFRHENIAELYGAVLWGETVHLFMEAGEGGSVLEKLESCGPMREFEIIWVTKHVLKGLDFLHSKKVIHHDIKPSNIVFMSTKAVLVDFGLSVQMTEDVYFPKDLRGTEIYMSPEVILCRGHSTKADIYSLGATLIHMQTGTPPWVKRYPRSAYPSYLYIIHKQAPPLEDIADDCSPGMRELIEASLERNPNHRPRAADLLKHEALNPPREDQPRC

Going from `N#Cc1cnc2c(C(F)(F)F)cc(NCc3ccccn3)cc2c1Nc1ccc(F)c(Cl)c1` [Example 231, 4-[(3-chloro-4-fluorophenyl)amino]-6-[(pyridin-2-ylmethyl)amino]-8-(trifluoromethyl)quinoline-3-carbonitrile] to `N#Cc1cnc2ccc(NCc3ccccc3O)cc2c1Nc1ccc(F)c(Cl)c1` [Example 55, 4-(3-Chloro-4-fluoro-phenylamino)-6-(2-hydroxy-benzylamino)-quinoline-3-carbonitrile], the IC50 falls from 19700 nM to 1800 nM (11-fold).

First: N#Cc1cnc2ccc(NC(=O)c3cccnc3)cc2c1Nc1ccc(F)c(Cl)c1 [Example 2, N-[4-(3-Chloro-4-fluoro-phenylamino)-3-cyano-quinolin-6-yl]-nicotinamide]
Second: CS(=O)(=O)c1cccc(CNc2ccc3ncc(C#N)c(Nc4ccc(F)c(Cl)c4)c3c2)c1 [Example 167, 6-(3-(methylsulfonyl)benzylamino)-4-(3-chloro-4-fluorophenylamino)quinoline-3-carbonitrile]
The IC50 of the first is 850-fold higher: 23900 nM for the first, 28 nM for the second. The second is the more potent here.

Compared with `CCc1nc(CNc2cc(Cl)c3ncc(C#N)c(Nc4ccc(F)c(Cl)c4)c3c2)c(C)n1C(=O)OC(C)(C)C` [Example 194, tert-butyl 4-((8-chloro-4-(3-chloro-4-fluorophenylamino)-3-cyanoquinolin-6-ylamino)methyl)-2-ethyl-5-methyl-1H-imidazole-1-carboxylate], `CCc1nc(CNc2cc(Cl)c3ncc(C#N)c(Nc4ccc(F)c(Cl)c4)c3c2)c(C)[nH]1` [Example 190, 8-chloro-4-(3-chloro-4-fluorophenylamino)-6-((2-ethyl-5-methyl-1H-imidazol-4-yl)methylamino)quinoline-3-carbonitrile] is 30-fold lower in IC50: 9700 nM for the first, 320 nM for the second. The second is the more potent here.

Compared with `COc1cc(NCCN2CCOCC2)cc2c(Nc3ccc(F)c(Cl)c3)c(C#N)cnc12` [Example 29, 4-(3-Chloro-4-fluoro-phenylamino)-8-methoxy-6-(2-morpholin-4-yl-ethylamino)-quinoline-3-carbonitrile], `N#Cc1cnc2c(Br)cc(NCc3cn(CC(O)CN4CCOCC4)nn3)cc2c1Nc1ccc(F)c(Cl)c1` (centres unmarked) [Example 319, 8-bromo-4-[(3-chloro-4-fluorophenyl)amino]-6-({[1-(2-hydroxy-3-morpholin-4-ylpropyl)-1H-1,2,3-triazol-4-yl]methyl}amino)quinoline-3-carbonitrile] is 25-fold lower in IC50: 5200 nM for the first, 210 nM for the second.

Compared with `N#Cc1cnc2ccc(NCc3nccn3CCN3CCOCC3)cc2c1Nc1ccc(F)c(Cl)c1` [Example 22, 4-(3-Chloro-4-fluoro-phenylamino)-6-{[1-(2-morpholin-4-yl-ethyl)-1H-imidazol-2-ylmethyl]-amino}-quinoline-3-carbonitrile], `CN(C)C(=O)c1cc(NCc2ccc(CO)o2)cc2c(Nc3ccc(F)c(Cl)c3)c(C#N)cnc12` [Example 88, 4-(3-chloro-4-fluorophenylamino)-3-cyano-6-((5-(hydroxymethyl)furan-2-yl)methylamino)-N,N-dimethylquinoline-8-carboxamide] is 3.7-fold higher in IC50: 68 nM for the first, 250 nM for the second. The first is the more potent here.

Going from `Cc1noc(Nc2c(C#N)cnc3ccc(NCc4cnc[nH]4)cc23)c1C` [Example 262, 4-[(3,4-dimethylisoxazol-5-yl)amino]-6-[(1H-imidazol-5-ylmethyl)amino]quinoline-3-carbonitrile] to `COc1cc(NCc2cccnc2)cc2c(Nc3ccc(C)c(O)c3)c(C#N)cnc12` [Example 32, 4-(3-Hydroxy-4-methyl-phenylamino)-8-methoxy-6-[(pyridin-3-ylmethyl)-amino]-quinoline-3-carbonitrile], the IC50 rises from 2200 nM to greater than 40000 nM.

Compared with `N#Cc1cccc(CNc2ccc3ncc(C#N)c(NC4CCCCCC4)c3c2)c1` [Example 247, 6-[(3-Cyanobenzyl)amino]-4-(cycloheptylamino)quinoline-3-carbonitrile], `CS(=O)(=O)c1cccc(CNc2cc(Cl)c3ncc(C#N)c(Nc4ccc(F)c(Cl)c4)c3c2)c1` [Example 185, 6-(3-(methylsulfonyl)benzylamino)-8-chloro-4-(3-chloro-4-fluorophenylamino)quinoline-3-carbonitrile] is 53-fold lower in IC50: 2500 nM for the first, 47 nM for the second. The second is the more potent here.

First: CSc1ncc(CNc2cc(Cl)c3ncc(C#N)c(Nc4ccc(F)c(Cl)c4)c3c2)cn1 [Example 281, 8-Chloro-4-[(3-chloro-4-fluorophenyl)amino]-6-({[2-(methylthio)pyrimidin-5-yl]methyl]amino)quinoline-3-carbonitrile]
Second: N#Cc1cnc2c(Br)cc(NCc3cn(C4CCNCC4)nn3)cc2c1Nc1ccc(F)c(Cl)c1 [Example 316, 8-bromo-4-[(3-chloro-4-fluorophenyl)amino]-6-{[(1-piperidin-4-yl-1H-1,2,3-triazol-4-yl)methyl]amino}quinoline-3-carbonitrile]
The IC50 of the first is 4.2-fold higher: 42 nM for the first, 10 nM for the second. The second is the more potent here.

same assay, conditions: Table 2; Tpl2/Cot kinase, GST-MEK1 substrate, 50 uM ATP

In order of falling IC50:
1. COc1cc(NCCN2CCOCC2)cc2c(Nc3ccc(F)c(Cl)c3)c(C#N)cnc12 [Example 383]  5200 nM
2. N#Cc1cnc2c(Cl)cc(NCC(=O)Nc3ccncc3)cc2c1Nc1ccc(F)c(Cl)c1 [Example 602]  2400 nM
3. Cn1ncc(Br)c1CNc1cc(Br)c2ncc(C#N)c(Nc3ccc(F)c(Cl)c3)c2c1 [Example 456]  1000 nM
4. N#Cc1cnc2c(Cl)cc(NCC(O)CO)cc2c1Nc1ccc(F)c(Cl)c1 (centres unmarked) [Example 631]  590 nM
5. N#Cc1cnc2c(Cl)cc(NCC(=O)NCc3ccccn3)cc2c1Nc1ccc(F)c(Cl)c1 [Example 607]  330 nM
6. N#Cc1cnc2c(Cl)cc(NCC(=O)Nc3cccnc3)cc2c1Nc1ccc(F)c(Cl)c1 [Example 601]  110 nM
7. N#Cc1cnc2c(Cl)cc(NCc3cc[nH]n3)cc2c1Nc1ccc(F)c(Cl)c1 [Example 427]  47 nM
8. CN1CC(CCn2cc(CNc3cc(Cl)c4ncc(C#N)c(Nc5ccc(F)c(Cl)c5)c4c3)nn2)N(C)C1=O (centres unmarked) [Example 615]  6.1 nM

same assay, conditions: Tpl2/Cot kinase, GST-MEK1 substrate, 50 uM ATP

In order of rising IC50:
1. CN(C)C(=O)CCn1cc(CNc2cc(Cl)c3ncc(C#N)c(Nc4ccc(F)c(Cl)c4)c3c2)nn1 [Example 789]  10 nM
2. CN1CCC(n2cc(CN(C)c3cc(Br)c4ncc(C#N)c(Nc5ccc(F)c(Cl)c5)c4c3)nn2)CC1 [Example 681]  22 nM
3. CCN1CC(CCn2cc(CNc3cc(Cl)c4ncc(C#N)c(Nc5ccc(F)c(Cl)c5)c4c3)nn2)N(c2ccccc2)C1=O (centres unmarked) [Example 791]  25 nM
4. N#Cc1cnc2c(Cl)cc(NCc3cn(CCCN4CCCNCC4)nn3)cc2c1Nc1ccc(F)c(Cl)c1 [Example 767]  74 nM
5. CN(C)C(=O)N1CCC[C@@H]1Cn1cc(CNc2cc(Cl)c3ncc(C#N)c(Nc4ccc(F)c(Cl)c4)c3c2)nn1 [Example 897]  110 nM
6. CC(C)(C)OC(=O)N1CCC(CCn2cc(CNc3cc(Br)c4ncc(C#N)c(Nc5ccc(F)c(Cl)c5)c4c3)nn2)CC1 [Example 675]  130 nM

same assay, conditions: Tpl2/Cot kinase, GST-MEK1 substrate, 50 uM ATP, 1 h at 30° C.; Table 2

First: CC(C)(C)OC(=O)N1C2CCC1CC(n1cc(CNc3cc(Cl)c4ncc(C#N)c(Nc5ccc(F)c(Cl)c5)c4c3)nn1)C2 (centres unmarked) [Example 1046]
Second: N#Cc1cnc2c(Cl)cc(NCc3cn(C4CC5CCC(C4)N5)nn3)cc2c1Nc1ccc(F)c(Cl)c1 (centres unmarked) [Example 997]
The IC50 of the first is 27-fold higher: 300 nM for the first, 11 nM for the second. The second is the more potent here.

Compared with `N#Cc1cnc2c(Cl)cc(NCc3cn(C4CCNCC4)nn3)cc2c1NC1CCC2(CCCCC2)CC1` [Example 978], `N#Cc1cnc2c(Cl)cc(NCc3cn(C4CCC(Nc5ccccn5)CC4)nn3)cc2c1Nc1ccc(F)c(Cl)c1` (centres unmarked) [Example 1039] is lower in IC50: greater than 3000 nM for the first, 100 nM for the second.

Compound `CC(C)(C)OC(=O)N1CCC(n2cc(COc3cc(Cl)c4ncc(C#N)c(Nc5ccc(F)c(Cl)c5)c4c3)nn2)CC1` [Example 941] has an IC50 of 520 nM.
